From US10550105B2 (Ribon Therapeutics Inc., priority 2018, dated 2020)

Molecular target: PARP7 (Homo sapiens (Human), UniProt Q7Z3E1)
Assay: Enzymatic assay for inhibition of PARP7: TR-FRET displacement of biotinylated Probe A from the TIPARP active site
Type: binding
Settings: Table A-1
Outline: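 Displacement of biotinylated Probe A from TIPARP was measured as the 665/615 nm time-resolved FRET ratio (excitation 320 nm, 90 μs delay) after a further 30 min at 25 °C. Inhibition across compound concentrations was fitted by dose-response regression, with the Hill slope free or fixed at 1 (3-parameter fit).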

Sequence of PARP7 (Q7Z3E1 whole entry): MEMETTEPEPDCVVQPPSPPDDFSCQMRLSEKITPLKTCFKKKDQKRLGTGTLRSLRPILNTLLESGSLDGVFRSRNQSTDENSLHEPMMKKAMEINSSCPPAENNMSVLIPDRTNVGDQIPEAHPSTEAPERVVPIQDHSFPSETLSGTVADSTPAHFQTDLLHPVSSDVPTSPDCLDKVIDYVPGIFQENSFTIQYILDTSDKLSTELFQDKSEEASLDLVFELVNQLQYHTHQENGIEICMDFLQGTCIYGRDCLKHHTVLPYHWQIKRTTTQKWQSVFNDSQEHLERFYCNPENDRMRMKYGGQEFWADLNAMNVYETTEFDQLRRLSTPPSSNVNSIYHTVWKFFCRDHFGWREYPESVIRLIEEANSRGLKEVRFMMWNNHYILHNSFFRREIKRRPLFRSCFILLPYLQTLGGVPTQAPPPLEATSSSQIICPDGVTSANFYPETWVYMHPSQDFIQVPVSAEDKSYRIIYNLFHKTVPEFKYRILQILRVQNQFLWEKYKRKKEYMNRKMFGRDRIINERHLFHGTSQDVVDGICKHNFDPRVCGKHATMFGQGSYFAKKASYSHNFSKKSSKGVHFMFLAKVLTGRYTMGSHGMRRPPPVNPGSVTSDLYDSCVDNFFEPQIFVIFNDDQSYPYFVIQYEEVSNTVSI

Compound | IC50
CO[C@H]1C[C@@H](COCCC(=O)N2CCN(c3ccc(C#N)cn3)CC2)N(c2cn[nH]c(=O)c2C(F)(F)F)C1 [Example 122, 6-[4-(3-[[(2S,4S)-4-methoxy-1-[6-oxo-5-(trifluoromethyl)-1,6-dihydropyridazin-4-yl]pyrrolidin-2-yl]methoxy]propanoyl)piperazin-1-yl]pyridine-3-carbonitrile] | < 100 nM
O=c1[nH]ncc(N2Cc3cccc(OC4CCOCC4)c3C2)c1C(F)(F)F [Example 194, 5-(4-((Tetrahydro-2H-pyran-4-yl)oxy)isoindolin-2-yl)-4-(trifluoromethyl)pyridazin-3(2H)-one] | < 100 nM
O=c1[nH]ncc(N2Cc3ccc(OCCO)cc3C2)c1C(F)(F)F [Example 177, 5-(5-(2-Hydroxyethoxy)isoindolin-2-yl)-4-(trifluoromethyl)pyridazin-3(2H)-one] | < 100 nM
O=c1[nH]ncc(N2Cc3cccc(OCC4CCCO4)c3C2)c1C(F)(F)F (stereo not drawn) [Example 201, 5-(4-((Tetrahydrofuran-2-yl)methoxy)isoindolin-2-yl)-4-(trifluoromethyl)pyridazin-3(2H)-one] | < 100 nM
[2H]C1([2H])N(C(=O)CCOC[C@H](C)Oc2cn[nH]c(=O)c2C(F)(F)F)C([2H])([2H])C([2H])([2H])N(c2ncc(Cl)cn2)C1([2H])[2H] [Example 715, (S)-5-((1-(3-(4-(5-Chloropyrimidin-2-yl)piperazin-1-yl-2,2,3,3,5,5,6,6-d8)-3-oxopropoxy)propan-2-yl)oxy)-4-(trifluoromethyl)pyridazin-3(2H)-one] | < 100 nM
NC1CCN(c2cccc3c2CN(c2cn[nH]c(=O)c2C(F)(F)F)C3)CC1 [Example 296, 5-(4-(4-Aminopiperidin-1-yl)isoindolin-2-yl)-4-(trifluoromethyl)pyridazin-3(2H)-one] | 100 to 1000 nM
C[C@H]1C[C@@H](COCCC(=O)N2CCN(c3ccc(C#N)cn3)CC2)N(c2cn[nH]c(=O)c2C(F)(F)F)C1 [Example 78, 6-[4-(3-[[(2S,4S)-4-methyl-1-[6-oxo-5-(trifluoromethyl)-1,6-dihydropyridazin-4-yl]pyrrolidin-2-yl]methoxy]propanoyl)piperazin-1-yl]pyridine-3-carbonitrile] | < 100 nM
C[C@@H](COCCC(=O)N1CC[C@@H]2[C@H]1CCN2c1ncc(C(F)(F)F)cn1)Nc1cn[nH]c(=O)c1C(F)(F)F [Example 688, 5-(((S)-1-(3-Oxo-3-((3aR,6aR)-4-(5-(trifluoromethyl)pyrimidin-2-yl)hexahydropyrrolo[3,2-b]pyrrol-1(2H)-yl)propoxy)propan-2-yl)amino)-4-(trifluoromethyl)pyridazin-3(2H)-one] | < 100 nM
C[C@@H](COCCC(=O)N1CCN(c2ncc(Cl)s2)CC1)Nc1cn[nH]c(=O)c1C(F)(F)F [Example 721, (S)-5-((1-(3-(4-(5-Chlorothiazol-2-yl)piperazin-1-yl)-3-oxopropoxy)propan-2-yl)amino)-4-(trifluoromethyl)pyridazin-3(2H)-one] | < 100 nM
N#Cc1ccc(N2CCN(C(=O)CCO[C@@H]3COC[C@@H]3Oc3cn[nH]c(=O)c3C(F)(F)F)CC2)nc1 [Example 531, 6-[4-(3-[[(3R,4S)-4-[[6-Oxo-5-(trifluoromethyl)-1,6-dihydropyridazin-4-yl]oxy]oxolan-3-yl]oxy]propanoyl)piperazin-1-yl]pyridine-3-carbonitrile] | < 100 nM
O=C(c1cccc(OC[C@@H]2c3ccccc3CN2c2cn[nH]c(=O)c2C(F)(F)F)c1)N1CCn2c(nnc2C(F)(F)F)C1 [Example 373, (S)-4-(Trifluoromethyl)-5-(1-((3-(3-(trifluoromethyl)-5,6,7,8-tetrahydro-[1,2,4]triazolo[4,3-a]pyrazine-7-carbonyl)phenoxy)methyl)isoindolin-2-yl)pyridazin-3(2H)-one] | < 100 nM
C[C@H](CC(=O)N1CCN(c2ccc(C#N)cn2)CC1)OCCNc1cn[nH]c(=O)c1C(F)(F)F [Example 528B] | < 100 nM
O=C(C[C@H]1CC[C@@H](CNc2cn[nH]c(=O)c2C(F)(F)F)O1)N1CCN(c2ncc(Cl)cn2)CC1 (single isomer, unassigned) [Example 567 Isomer A] | < 100 nM
COC[C@@H](COCCC(=O)N1CCN(c2ncc(C(F)(F)F)cn2)CC1)Sc1cn[nH]c(=O)c1C(F)(F)F [Example 691, (S)-5-((1-Methoxy-3-(3-oxo-3-(4-(5-(trifluoromethyl)pyrimidin-2-yl)piperazin-1-yl)propoxy)propan-2-yl)thio)-4-(trifluoromethyl)pyridazin-3(2H)-one] | < 100 nM
CN1CCC(Oc2cccc3c2CN(c2cn[nH]c(=O)c2Cl)C3)C1 (stereo not drawn) [Example 259, 4-Chloro-5-(4-((1-methylpyrrolidin-3-yl)oxy)isoindolin-2-yl)pyridazin-3(2H)-one] | ≥ 1000 nM

Results, then the compound that gave them:

IC50 | Compound
< 100 nM | C[C@@H](COCCC(=O)N1CCN(c2cnc(C(F)(F)F)s2)CC1)Nc1cn[nH]c(=O)c1C(F)(F)F [Example 709, (S)-5-((1-(3-Oxo-3-(4-(2-(trifluoromethyl)thiazol-5-yl)piperazin-1-yl)propoxy)propan-2-yl)amino)-4-(trifluoromethyl)pyridazin-3(2H)-one]
< 100 nM | O=c1[nH]ncc(N2Cc3cccc(OCCN4CCNCC4)c3C2)c1C(F)(F)F [Example 227, 5-(4-(2-(Piperazin-1-yl)ethoxy)isoindolin-2-yl)-4-(trifluoromethyl)pyridazin-3(2H)-one]
< 100 nM | C[C@@H](COC[C@@H]1CCCN1c1cn[nH]c(=O)c1C(F)(F)F)C(=O)N1CCN(c2ccc(C#N)cn2)CC1 (single isomer, unassigned) [Example 94 Isomer B]
100 to 1000 nM | O=C(c1cncc(OC[C@H]2c3ccccc3CN2c2cn[nH]c(=O)c2C(F)(F)F)c1)N1CCN(c2ccc(Cl)cn2)CC1 [Example 389, (R)-5-(1-(((5-(4-(5-Chloropyridin-2-yl)piperazine-1-carbonyl)pyridin-3-yl)oxy)methyl)isoindolin-2-yl)-4-(trifluoromethyl)pyridazin-3(2H)-one]
< 100 nM | N#Cc1ccc(N2CCN(C(=O)CCOC[C@@H]3CCCN3c3cn[nH]c(=O)c3Cl)CC2)nc1 [Example 468, (S)-6-(4-(3-((1-(5-Chloro-6-oxo-1,6-dihydropyridazin-4-yl)pyrrolidin-2-yl)methoxy)propanoyl)piperazin-1-yl)nicotinonitrile]
< 100 nM | N#Cc1ccc(N2CCN(C(=O)c3ccnc(OC[C@@H]4c5ccccc5CN4c4cn[nH]c(=O)c4C(F)(F)F)c3)CC2)nc1 (single isomer, unassigned) [Example 36 Isomer B]
100 to 1000 nM | N#Cc1ncc(N2CCN(C(=O)CCOC[C@@H]3CCCN3c3cn[nH]c(=O)c3C(F)(F)F)CC2)cn1 [Example 476, (S)-5-(4-(3-((1-(6-Oxo-5-(trifluoromethyl)-1,6-dihydropyridazin-4-yl)pyrrolidin-2-yl)methoxy)propanoyl)piperazin-1-yl)pyrimidine-2-carbonitrile]
< 100 nM | CC(=O)N1CCC(Oc2cc3c(cn2)CN(c2cn[nH]c(=O)c2C(F)(F)F)C3)CC1 [Example 13]
< 100 nM | O=C(CCOC[C@@H]1c2ccccc2CN1c1cn[nH]c(=O)c1Cl)N1CCN(c2ncc(C(F)(F)F)cn2)CC1 [Example 415, (S)-4-Chloro-5-(1-((3-oxo-3-(4-(5-(trifluoromethyl)pyrimidin-2-yl)piperazin-1-yl)propoxy)methyl)isoindolin-2-yl)pyridazin-3(2H)-one]
